Source: patent publication US7872018B2, “Compounds and methods for kinase modulation, and indications therefor” (Plexxikon, Inc., priority 2006, dated 2011)

How the values were obtained:
[1] = target: T1, Fms (Homo sapiens, UniProt P07333); assay: Fms biochemical assay (AlphaScreen or 33P-ATP); details: under the test conditions employed; read-out: IC50 toward kinase Fms
T1 construct: purchased Upstate Biotech 14-551
Source text: Each sample was at 5% DMSO.

[2] = target: HGK (Homo sapiens, UniProt O95819); assay: HGK (MAP4K4) biochemical assay (AlphaScreen); details: under the test conditions employed; read-out: IC50 toward kinase HGK
Description: Substrate was 10 nM biotin-ERM (T567/T564/T558, Cell Signaling, Inc., cat#1344). MAP4K4 kinase was at 0.5 ng per sample. After incubation of the kinase reaction for 40 min at room temperature, 5 μl of donor beads and protein A acceptor beads (Perkin Elmer Life Science, cat#67606017) at final concentration 1 μg/ml in stop buffer (20 mM Tris, pH 7.4, 200 mM Nacl, 100 mM EDTA, 0.03% BSA) was added, along with Phospho-ERM Antibody (T567/T564/T558, Cell Signaling, Inc., cat#3141) at 1:1000 dilution. […] Phosphorylated substrate results in binding of the antibody which binds to protein A acceptor bead and association of the donor and acceptor beads is such that the signal correlates with kinase activity.

[3] = target: T2, TrkA (Homo sapiens, UniProt P04629); assay: TrkA biochemical assay (AlphaScreen); details: under the test conditions employed; read-out: IC50 toward kinase TrkA
T2 construct: purchased Upstate Biotech 14-571
Description: Compounds tested were dissolved in DMSO (1 μL) and added to a white 384-well plate (Costar #3705). […] Each sample was at 5% DMSO. The plate was then incubated for 40 minutes at room temperature.

[4] = target: T3, Kit (Homo sapiens, UniProt P10721); assay: c-kit biochemical assay (AlphaScreen or 33P-ATP); details: under the test conditions employed; read-out: IC50 toward kinase Kit
T3 construct: P1332.N6 BI PTP KIT M552-K948-X COD; made in house; host or cells: E. coli BL21(DE3)RIL, co-expressed with PTP1B
Description: C-kit kinase was at 1 ng per sample.
The c-kit enzyme used in the above assay was either obtained from Cell Signaling Technology (Cat. #7754) or was prepared as follows: A plasmid encoding kit (DNA and encoded protein sequences shown below) was engineered using common polymerase chain reaction (PCR) methods. Complementary DNA cloned from various human tissues were purchased from Invitrogen, and these were used as substrates in the PCR reactions. Specific custom synthetic oligonucleotide primers were designed to initiate the PCR product, and also to provide the appropriate restriction enzyme cleavage sites for ligation with the plasmids. The entire sequence encoding the enzyme was made through a gene synthesis procedure, using custom synthetic oligonucleotides covering the entire coding sequence (Invitrogen, see below).

[5] = target: B-Raf V600E (Homo sapiens, UniProt P15056, V600E); assay: B-Raf V600E kinase activity assay; type: biochemical; details: under the test conditions employed; read-out: IC50 toward kinase B-Raf V600E
[6] = target: Kdr (Homo sapiens, UniProt P35968); assay: Kdr kinase activity assay; type: biochemical; details: under the test conditions employed; read-out: IC50 toward kinase Kdr
Sequence of Kdr (P35968 20-1356): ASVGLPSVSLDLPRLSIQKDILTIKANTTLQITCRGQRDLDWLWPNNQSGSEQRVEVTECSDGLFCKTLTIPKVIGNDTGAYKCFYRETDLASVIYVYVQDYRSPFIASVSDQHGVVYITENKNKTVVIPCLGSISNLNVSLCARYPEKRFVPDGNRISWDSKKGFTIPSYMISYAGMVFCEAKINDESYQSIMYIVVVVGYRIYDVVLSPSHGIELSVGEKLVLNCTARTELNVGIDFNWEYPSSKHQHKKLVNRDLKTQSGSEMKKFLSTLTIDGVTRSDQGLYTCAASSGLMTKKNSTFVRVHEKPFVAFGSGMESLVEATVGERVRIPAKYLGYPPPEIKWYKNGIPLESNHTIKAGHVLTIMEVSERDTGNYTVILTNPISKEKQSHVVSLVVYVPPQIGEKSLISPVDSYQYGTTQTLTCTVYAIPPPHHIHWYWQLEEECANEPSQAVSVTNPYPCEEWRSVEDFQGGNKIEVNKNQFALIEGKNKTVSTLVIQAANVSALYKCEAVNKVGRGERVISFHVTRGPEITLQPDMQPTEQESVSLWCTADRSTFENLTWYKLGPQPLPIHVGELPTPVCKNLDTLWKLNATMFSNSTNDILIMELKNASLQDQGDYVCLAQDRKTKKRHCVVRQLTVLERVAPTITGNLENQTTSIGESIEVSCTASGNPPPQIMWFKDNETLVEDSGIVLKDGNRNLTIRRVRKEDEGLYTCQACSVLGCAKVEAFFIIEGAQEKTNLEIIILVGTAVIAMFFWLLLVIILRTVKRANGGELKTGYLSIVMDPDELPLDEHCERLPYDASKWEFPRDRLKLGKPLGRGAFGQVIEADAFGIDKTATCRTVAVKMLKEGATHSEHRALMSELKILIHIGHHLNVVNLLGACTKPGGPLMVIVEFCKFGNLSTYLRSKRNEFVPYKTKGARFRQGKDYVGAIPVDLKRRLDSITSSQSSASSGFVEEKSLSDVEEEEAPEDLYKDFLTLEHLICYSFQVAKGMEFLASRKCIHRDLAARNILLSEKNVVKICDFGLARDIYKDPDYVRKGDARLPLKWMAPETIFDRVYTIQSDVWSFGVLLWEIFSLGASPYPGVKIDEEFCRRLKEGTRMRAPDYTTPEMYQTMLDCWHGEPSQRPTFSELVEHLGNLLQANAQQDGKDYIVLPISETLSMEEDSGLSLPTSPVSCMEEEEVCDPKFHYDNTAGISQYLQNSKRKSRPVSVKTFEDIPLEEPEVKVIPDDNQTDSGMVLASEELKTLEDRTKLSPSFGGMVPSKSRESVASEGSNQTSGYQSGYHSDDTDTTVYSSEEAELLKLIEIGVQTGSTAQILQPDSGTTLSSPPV

T2 sequence (P04629 33-796): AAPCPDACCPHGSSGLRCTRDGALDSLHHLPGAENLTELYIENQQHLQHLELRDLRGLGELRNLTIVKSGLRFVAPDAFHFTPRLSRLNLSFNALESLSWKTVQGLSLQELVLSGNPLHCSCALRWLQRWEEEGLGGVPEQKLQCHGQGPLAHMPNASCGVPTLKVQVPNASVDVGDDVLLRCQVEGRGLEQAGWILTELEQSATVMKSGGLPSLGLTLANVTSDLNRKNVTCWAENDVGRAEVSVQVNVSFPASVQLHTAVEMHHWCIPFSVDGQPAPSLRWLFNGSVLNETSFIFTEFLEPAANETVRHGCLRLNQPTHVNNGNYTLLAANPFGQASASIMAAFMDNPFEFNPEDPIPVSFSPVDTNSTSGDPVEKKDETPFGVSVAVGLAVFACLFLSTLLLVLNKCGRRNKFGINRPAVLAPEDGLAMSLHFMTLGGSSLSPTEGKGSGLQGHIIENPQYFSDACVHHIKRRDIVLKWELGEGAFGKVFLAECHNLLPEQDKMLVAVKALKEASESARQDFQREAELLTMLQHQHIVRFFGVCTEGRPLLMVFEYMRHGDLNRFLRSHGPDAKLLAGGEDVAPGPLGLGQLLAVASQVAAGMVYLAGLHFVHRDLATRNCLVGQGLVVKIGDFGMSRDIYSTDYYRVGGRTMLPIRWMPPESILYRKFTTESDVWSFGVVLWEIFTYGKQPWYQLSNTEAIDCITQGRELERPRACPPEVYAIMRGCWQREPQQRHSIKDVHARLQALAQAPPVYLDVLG
Sequence of B-Raf V600E (P15056 whole entry V600E): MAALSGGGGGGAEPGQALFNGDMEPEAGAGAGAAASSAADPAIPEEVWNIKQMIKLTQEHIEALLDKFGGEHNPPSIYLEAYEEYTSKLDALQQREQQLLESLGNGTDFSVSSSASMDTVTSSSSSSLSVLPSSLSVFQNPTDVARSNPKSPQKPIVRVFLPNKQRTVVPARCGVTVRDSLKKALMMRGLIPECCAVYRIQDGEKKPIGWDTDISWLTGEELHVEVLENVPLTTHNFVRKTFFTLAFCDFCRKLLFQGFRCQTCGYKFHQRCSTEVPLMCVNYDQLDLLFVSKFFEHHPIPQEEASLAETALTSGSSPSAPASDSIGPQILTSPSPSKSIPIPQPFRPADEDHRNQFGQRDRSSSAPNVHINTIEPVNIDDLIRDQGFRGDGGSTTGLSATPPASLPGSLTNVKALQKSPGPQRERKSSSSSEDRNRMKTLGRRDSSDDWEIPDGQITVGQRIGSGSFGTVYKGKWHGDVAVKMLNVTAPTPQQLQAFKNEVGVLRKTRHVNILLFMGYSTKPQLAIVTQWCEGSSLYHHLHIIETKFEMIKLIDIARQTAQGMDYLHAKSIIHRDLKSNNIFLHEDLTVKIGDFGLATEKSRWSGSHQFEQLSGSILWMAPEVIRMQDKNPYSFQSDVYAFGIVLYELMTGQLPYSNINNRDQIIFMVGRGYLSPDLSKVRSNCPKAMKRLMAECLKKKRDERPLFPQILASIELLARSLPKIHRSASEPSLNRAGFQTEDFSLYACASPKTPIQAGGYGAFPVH
T3 sequence (P10721 552-948): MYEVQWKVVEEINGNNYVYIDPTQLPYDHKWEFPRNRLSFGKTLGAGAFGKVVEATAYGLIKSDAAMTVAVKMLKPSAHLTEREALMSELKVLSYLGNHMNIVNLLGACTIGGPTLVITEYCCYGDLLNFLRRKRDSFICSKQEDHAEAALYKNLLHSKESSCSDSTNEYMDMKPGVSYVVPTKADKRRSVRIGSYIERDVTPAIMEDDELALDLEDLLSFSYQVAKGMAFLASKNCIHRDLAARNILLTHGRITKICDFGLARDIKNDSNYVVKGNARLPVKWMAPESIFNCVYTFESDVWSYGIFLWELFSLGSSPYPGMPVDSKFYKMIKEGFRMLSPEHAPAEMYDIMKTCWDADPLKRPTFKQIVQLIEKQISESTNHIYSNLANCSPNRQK
Sequence of HGK (O95819 whole entry): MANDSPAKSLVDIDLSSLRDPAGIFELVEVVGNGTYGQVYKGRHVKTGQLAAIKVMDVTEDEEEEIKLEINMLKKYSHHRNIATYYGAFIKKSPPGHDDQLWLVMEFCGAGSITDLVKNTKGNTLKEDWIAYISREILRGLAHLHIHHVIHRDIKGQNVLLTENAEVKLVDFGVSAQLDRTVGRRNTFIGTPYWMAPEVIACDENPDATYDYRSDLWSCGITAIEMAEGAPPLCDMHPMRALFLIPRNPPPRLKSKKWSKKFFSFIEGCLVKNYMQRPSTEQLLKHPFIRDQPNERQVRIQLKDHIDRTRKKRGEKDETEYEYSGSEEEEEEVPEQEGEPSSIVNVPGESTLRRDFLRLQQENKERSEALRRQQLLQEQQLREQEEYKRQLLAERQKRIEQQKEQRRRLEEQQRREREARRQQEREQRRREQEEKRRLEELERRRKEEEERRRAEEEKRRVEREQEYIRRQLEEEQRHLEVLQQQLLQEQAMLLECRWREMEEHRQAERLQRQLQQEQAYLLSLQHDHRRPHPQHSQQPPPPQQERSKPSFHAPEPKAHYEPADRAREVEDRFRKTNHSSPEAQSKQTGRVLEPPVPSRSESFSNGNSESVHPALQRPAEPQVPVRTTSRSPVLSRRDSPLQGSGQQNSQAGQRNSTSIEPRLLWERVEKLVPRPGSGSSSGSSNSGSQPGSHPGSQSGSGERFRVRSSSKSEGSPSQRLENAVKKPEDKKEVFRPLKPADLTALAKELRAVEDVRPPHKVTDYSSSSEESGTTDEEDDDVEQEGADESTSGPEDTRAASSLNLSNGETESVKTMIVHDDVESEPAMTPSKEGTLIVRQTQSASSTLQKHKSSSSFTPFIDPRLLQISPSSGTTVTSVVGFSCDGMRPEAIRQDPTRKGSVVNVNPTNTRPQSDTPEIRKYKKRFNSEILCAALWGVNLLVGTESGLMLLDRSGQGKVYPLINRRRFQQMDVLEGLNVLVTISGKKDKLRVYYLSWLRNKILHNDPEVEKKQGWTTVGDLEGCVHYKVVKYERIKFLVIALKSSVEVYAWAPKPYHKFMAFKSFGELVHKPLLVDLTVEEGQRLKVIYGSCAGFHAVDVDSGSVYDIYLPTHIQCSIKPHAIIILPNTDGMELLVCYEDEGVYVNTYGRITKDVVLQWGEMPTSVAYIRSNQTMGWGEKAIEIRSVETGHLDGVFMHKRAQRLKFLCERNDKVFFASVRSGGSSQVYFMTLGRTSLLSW

| SMILES | IC50 [1] [µM] | IC50 [2] [µM] | IC50 [3] [µM] | IC50 [4] [µM] | IC50 [5] [µM] | IC50 [6] [µM] |
| --- | --- | --- | --- | --- | --- | --- |
| COc1cc(Cc2c[nH]c3ncc(Cl)cc23)c(F)cc1OCc1nc2cc(Cl)ccc2[nH]1 [P-2111, 6-Chloro-2-[4-(5-chloro-1H-pyrrolo[2,3-b]pyridin-3-ylmethyl)-5-fluoro-2-methoxy-phenoxymethyl]-1H-benzoimidazole] | ≤ 10 | ≤ 10 | ≤ 10 | ≤ 10 |  |  |
| COc1cc(Cc2c[nH]c3ncccc23)ccc1OCc1c(F)cc(F)cc1F [P-1578, 3-[3-Methoxy-4-(2,4,6-trifluoro-benzyloxy)-benzyl]-1H-pyrrolo[2,3-b]pyridine] |  |  |  | ≤ 10 | ≤ 10 |  |
| Fc1cc(Cc2c[nH]c3ncc(Cl)cc23)c(Cl)cc1OCc1nc2ccccc2[nH]1 [P-2099, 2-[5-Chloro-4-(5-chloro-1H-pyrrolo[2,3-b]pyridin-3-ylmethyl)-2-fluoro-phenoxymethyl]-1H-benzoimidazole] | ≤ 10 | ≤ 10 | ≤ 10 |  |  |  |
| COc1cc(C(=O)c2c[nH]c3ncccc23)ccc1OCc1ccc(Cl)cc1 [P-1698, [4-(4-Chloro-benzyloxy)-3-methoxy-phenyl]-(1H-pyrrolo[2,3-b]pyridin-3-yl)-methanone] |  |  |  |  | ≤ 10 |  |
| O=C(c1c(F)ccc(OCC(F)(F)F)c1Cl)c1c[nH]c2ncccc12 [P-2150, [2-Chloro-6-fluoro-3-(2,2,2-trifluoro-ethoxy)-phenyl]-(1H-pyrrolo[2,3-b]pyridin-3-yl)-methanone] | ≤ 10 |  |  |  |  | ≤ 10 |
| COc1cnc2[nH]cc(Cc3c(Cl)ccc(OCC(F)(F)F)c3Cl)c2c1 [P-2153, 3-[2,6-Dichloro-3-(2,2,2-trifluoro-ethoxy)-benzyl]-5-methoxy-1H-pyrrolo[2,3-b]pyridine] | ≤ 10 |  |  |  |  | ≤ 10 |
| COC(=O)c1cnc2[nH]cc(Cc3cc(OC)c(OCc4nc5ccccc5[nH]4)cc3F)c2c1 [P-2174, 3-[4-(1H-Benzimidazol-2-ylmethoxy)-2-fluoro-5-methoxy-benzyl]-1H-pyrrolo[2,3-b]pyridine-5-carboxylic acid methyl ester] | ≤ 10 | ≤ 10 | ≤ 10 | ≤ 10 |  |  |
| COc1cc(Cc2c[nH]c3ncc(Cl)cc23)c(F)cc1OCc1nc2ccccc2n1C [P-2106, 2-[4-(5-Chloro-1H-pyrrolo[2,3-b]pyridin-3-ylmethyl)-5-fluoro-2-methoxy-phenoxymethyl]-1-methyl-1H-benzoimidazole] | ≤ 10 | ≤ 10 | ≤ 10 | ≤ 10 |  |  |
| COc1cnc2[nH]cc(Cc3cc(Cl)c(OCc4nc5ccccc5[nH]4)cc3F)c2c1 [P-2116, 2-[2-Chloro-5-fluoro-4-(5-methoxy-1H-pyrrolo[2,3-b]pyridin-3-ylmethyl)-phenoxymethyl]-1H-benzoimidazole] | ≤ 10 | ≤ 10 | ≤ 10 |  |  |  |
| COc1cc(Cc2c[nH]c3ncc(Cl)cc23)c(F)cc1OCCc1nc2ccccc2[nH]1 [P-2180, 2-{2-[4-(5-Chloro-1H-pyrrolo[2,3-b]pyridin-3-ylmethyl)-5-fluoro-2-methoxy-phenoxy]-ethyl}-1H-benzoimidazole] | ≤ 10 | ≤ 10 | ≤ 10 | ≤ 10 |  |  |
| COc1cc(Cc2c[nH]c3ncc(F)cc23)c(F)cc1OCc1nc2ccccc2[nH]1 [P-2115, 2-[5-Fluoro-4-(5-fluoro-1H-pyrrolo[2,3-b]pyridin-3-ylmethyl)-2-methoxy-phenoxymethyl]-1H-benzoimidazole] | ≤ 10 | ≤ 10 | ≤ 10 |  |  |  |
| CCOc1cc(Cc2c[nH]c3ncccc23)ccc1OCc1ccc(Cl)cc1 [P-1470, 3-[4-(4-Chloro-benzyloxy)-3-ethoxy-benzyl]-1H-pyrrolo[2,3-b]pyridine] | ≤ 10 |  |  | ≤ 10 | ≤ 10 |  |
| COc1cnc2[nH]cc(Cc3c(F)ccc(OCC(F)(F)F)c3Cl)c2c1 [P-2147, 3-[2-Chloro-6-fluoro-3-(2,2,2-trifluoro-ethoxy)-benzyl]-5-methoxy-1H-pyrrolo[2,3-b]pyridine] | ≤ 10 |  |  |  |  | ≤ 10 |
| COc1cc(Cc2c[nH]c3ncc(Cl)cc23)c(Cl)cc1OCc1nc2ccccc2[nH]1 [P-2104, 2-[5-Chloro-4-(5-chloro-1H-pyrrolo[2,3-b]pyridin-3-ylmethyl)-2-methoxy-phenoxymethyl]-1H-benzoimidazole] | ≤ 10 | ≤ 10 | ≤ 10 |  |  |  |
| COc1cc(Cc2c[nH]c3ncccc23)c(F)cc1OCc1nc2ccc(Cl)cc2[nH]1 [P-2112, 6-Chloro-2-[5-fluoro-2-methoxy-4-(1H-pyrrolo[2,3-b]pyridin-3-ylmethyl)-phenoxymethyl]-1H-benzoimidazole] | ≤ 10 | ≤ 10 | ≤ 10 | ≤ 10 |  |  |
| COc1cc(Cc2c[nH]c3ncc(Cl)cc23)c(F)cc1OC(C)c1nc2ccccc2[nH]1 (stereo not shown) [P-2110, 2-{1-[4-(5-Chloro-1H-pyrrolo[2,3-b]pyridin-3-ylmethyl)-5-fluoro-2-methoxy-phenoxy]-ethyl}-1H-benzoimidazole] | ≤ 10 | ≤ 10 | ≤ 10 | ≤ 10 |  |  |
| COc1cc(Cc2c[nH]c3ncc(Cl)cc23)c(F)cc1OCc1nc2cc(Cl)c(Cl)cc2[nH]1 [P-2172, 5,6-Dichloro-2-[4-(5-chloro-1H-pyrrolo[2,3-b]pyridin-3-ylmethyl)-5-fluoro-2-methoxy-phenoxymethyl]-1H-benzoimidazole] | ≤ 10 | ≤ 10 | ≤ 10 | ≤ 10 |  |  |
| COc1cc(Cc2c[nH]c3ncccc23)cc(F)c1OCc1ccc(Cl)cc1 [P-1466, 3-[4-(4-Chloro-benzyloxy)-3-fluoro-5-methoxy-benzyl]-1H-pyrrolo[2,3-b]pyridine] | ≤ 10 |  |  | ≤ 10 | ≤ 10 |  |
| COc1cc(Cc2c[nH]c3ncc(C(=O)O)cc23)c(F)cc1OCc1nc2ccccc2[nH]1 [P-2175, 3-[4-(1H-Benzoimidazol-2-ylmethoxy)-2-fluoro-5-methoxy-benzyl]-1H-pyrrolo[2,3-b]pyridine-5-carboxylic acid] | ≤ 10 | ≤ 10 | ≤ 10 |  |  |  |
| FC(F)(F)c1ccc(COc2ccc(Cc3c[nH]c4ncccc34)cc2C(F)(F)F)cc1 [P-1797, 3-[3-Trifluoromethyl-4-(4-trifluoromethyl-benzyloxy)-benzyl]-1H-pyrrolo[2,3-b]pyridine] |  |  |  |  | ≤ 10 |  |
| COc1cc(Cc2c[nH]c3ncc(Cl)cc23)c(F)cc1OCc1nc2cc(C(F)(F)F)ccc2[nH]1 [P-2178, 2-[4-(5-Chloro-1H-pyrrolo[2,3-b]pyridin-3-ylmethyl)-5-fluoro-2-methoxy-phenoxymethyl]-5-trifluoromethyl-1H-benzoimidazole] | ≤ 10 | ≤ 10 | ≤ 10 | ≤ 10 |  |  |
| COc1cc(Cc2c[nH]c3ncccc23)c(Cl)cc1OCc1nc2ccccc2[nH]1 [P-2103, 2-[5-Chloro-2-methoxy-4-(1H-pyrrolo[2,3-b]pyridin-3-ylmethyl)-phenoxymethyl]-1H-benzoimidazole] | ≤ 10 | ≤ 10 | ≤ 10 |  |  |  |
| COc1cc(Cc2c[nH]c3ncccc23)ccc1OCc1c(Cl)cccc1Cl [P-1579, 3-[4-(2,6-Dichloro-benzyloxy)-3-methoxy-benzyl]-1H-pyrrolo[2,3-b]pyridine] |  |  |  |  | ≤ 10 |  |
| COc1cc(Cc2c[nH]c3ncc(C#N)cc23)c(F)cc1OCc1nc2ccccc2[nH]1 [P-2171, 3-[4-(1H-Benzoimidazol-2-ylmethoxy)-2-fluoro-5-methoxy-benzyl]-1H-pyrrolo[2,3-b]pyridine-5-carbonitrile] | ≤ 10 | ≤ 10 | ≤ 10 |  |  |  |
| COc1ccc2[nH]c(COc3cc(F)c(Cc4c[nH]c5ncc(Cl)cc45)cc3OC)nc2c1 [P-2182, 2-[4-(5-Chloro-1H-pyrrolo[2,3-b]pyridin-3-ylmethyl)-5-fluoro-2-methoxy-phenoxymethyl]-5-methoxy-1H-benzoimidazole] | ≤ 10 | ≤ 10 | ≤ 10 |  |  |  |
| Clc1ccc(COc2ccc(Cc3c[nH]c4ncccc34)c(Cl)c2)cc1 [P-1471, 3-[2-Chloro-4-(4-chloro-benzyloxy)-benzyl]-1H-pyrrolo[2,3-b]pyridine] | ≤ 10 |  |  | ≤ 10 | ≤ 10 |  |
